Test results published in patent publication US6914053B2, “Adenosine A3 receptor agonists” (CV Therapeutics, Inc., priority 2002, dated 2005).

What was measured:
[1] = biological target: T1, A3 AdoRs (Homo sapiens, UniProt P0DMS8); assay: Radioligand binding competition with 125I-AB-MECA on membranes of transfected cells; settings: competition with 0.2 nM 125I-AB-MECA, membranes of HEK-A3 or CHO-A3, TEM buffer, 90 minutes
T1 construct: expressed in transfected cells; host or cells: HEK-293 or CHO cells (HEK-A3 or CHO-A3), membranes
T1 sequence (P0DMS8 1-318): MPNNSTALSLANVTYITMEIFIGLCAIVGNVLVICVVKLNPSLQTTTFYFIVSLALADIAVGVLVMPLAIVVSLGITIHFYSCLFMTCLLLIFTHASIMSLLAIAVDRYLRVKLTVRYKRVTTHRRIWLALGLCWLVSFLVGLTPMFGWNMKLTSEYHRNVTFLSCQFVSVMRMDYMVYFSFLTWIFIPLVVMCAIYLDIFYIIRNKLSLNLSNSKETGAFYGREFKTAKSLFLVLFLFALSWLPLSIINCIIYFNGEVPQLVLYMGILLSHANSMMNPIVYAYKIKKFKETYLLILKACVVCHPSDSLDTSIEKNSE
Method: Stable transfection of HEK-293 or CHO cells. The cDNAs for human A1, A2A, A2B or A3 AdoRs were prepared by RT-PCR from total RNA of human cells or tissues and sequenced on both strands. The expression vector containing each of these cDNAs and a second vector containing a neomycin or puromycin-resistance gene were introduced to HEK-293 or CHO cells by Lipofectin-Plus (Life Technology). Colonies were selected by growing transfected cells in the presence of neomycin or puromycin. Stably transfected cells were maintained in Dulbecco's modified Eagle's medium (DMEM) or F-12 medium with 10% fetal bovine serum, 100 μg/ml penicillin, 100 μg/ml streptomycin and appropriate concentrations of neomycin or puromycin. These stably transfected cells were referred to as HEK-“AdoR” or CHO-“AdoR” depending on the receptors that they express. For example, cells that were transfected with A3 AdoRs were referred to as HEK-A3 or CHO-A3.
Membrane preparation. Monolayers of transfected cells were washed with phosphate buffered saline (PBS) and harvested in a buffer containing 10 mM HEPES (pH 7.4), 10 mM EDTA and protease inhibitors. The cells were homogenized in polytron for 1 minute at setting 4 and centrifuged at 29000 g for 15 minutes at 4° C. The cell pellets were washed with a buffer containing 10 mM HEPES (pH7.4), 1 mM EDTA and protease inhibitors, and were resuspended in the same buffer supplemented with 10% sucrose. Frozen aliquots were kept at −80° C.
Radioligand binding. The affinities of compounds for A1, A2A, A2B or A3 AdoRs were determined in competition studies using radioligands such as ^3H—CPX (A1 antagonist), or ^3H-CCPA (A1 agonist), ^3H-ZM214385 (A2A antagonist) or ^3H-CGS21680 (A2A agonist), ^3H-ZM214385 (A2B antagonist) or ^125I-AB-MECA (A3 agonist) and membranes of corresponding transfected cells. For example, to determine the affinity for A3 AdoRs, the competition assays were started by mixing 0.2 nM ^125I-AB-MECA with various concentrations of test compounds and 25 ug membrane proteins of HEK-A3 or CHO-A3 in TEM buffer (50 mM Tris, 1 mM EDTA and 10 mM MgCl2) supplemented with 1 U/ml adenosine deaminase. The assays were incubated for 90 minutes, stopped by filtration onto GF/B filter plates using Packard Harvester and washed four times with ice-cold TM buffer (10 mM Tris, 1 mM MgCl2, pH 7.4). The amounts of radioligands that bound to the GF/B filter plates were determined by scintillation counting. Nonspecific binding was determined in the presence of 10 μM R—PIA or 1 μM IB-MECA. Bmax and KD values were calculated using GraphPad software.

Structure (SMILES)	Ki [1]	melting point
CCCCCc1ccc(C#Cc2nc(NOC)c3ncn([C@@H]4O[C@H](CO)[C@@H](O)[C@H]4O)c3n2)cc1 [(4S,2R,3R,5R)-5-hydroxymethyl)-2-{6-(methoxyamino-2-[2-(4-pentylphenylethynyl)]purin-9-yl}oxolane-3,4-diol]	0.388 nM	–
CONc1nc(C#Cc2ccccc2)nc2c1ncn2[C@@H]1O[C@H](CO)[C@@H](O)[C@H]1O [Example 6A, (4S,2R,3R,5R)-5-(hydroxymethyl)-2-[6-(methoxyamino)-2-(2-phenylethynyl)purin-9-yl]oxolane-3,4-diol]	–	175 to 177 °C
CONc1nc(C#Cc2ccc(C)cc2)nc2c1ncn2[C@@H]1O[C@H](CO)[C@@H](O)[C@H]1O [(4S,2R,3R,5R)-5-(hydroxymethyl)-2-[6-(methoxyamino)-2-[(2-(4-methylphenyl)ethynyl]-purin-9-yl]oxolane-3,4-diol]	0.331 nM	–
CONc1nc(C#Cc2ccc(F)cc2)nc2c1ncn2[C@@H]1O[C@H](CO)[C@@H](O)[C@H]1O [(4S,2R,3R,5R)-2-{2-[2-(4-fluorophenyl)ethynyl}-6-(methoxyamino)purin-9-yl}-5-(hydroxymethyl)oxolane-3,4-diol]	0.422 nM	–
CCCCC#Cc1nc(NOC)c2ncn([C@@H]3O[C@H](CO)[C@@H](O)[C@H]3O)c2n1 [(4S,2R,3R,5R)-2-{2-[2-hex-1-ynyl-6-methoxyamino)purin-9-yl}-5-(hydroxymethyl)oxolane-3,4-diol]	0.681 nM	–
